Here are results for 27 compounds from ChEMBL document CHEMBL4014328, “Piperazin-1-ylpyridazine Derivatives Are a Novel Class of Human dCTP Pyrophosphatase 1 Inhibitors” (J Med Chem, 2017).

The target in data set [1] is T1, Stearoyl-CoA desaturase (Homo sapiens, UniProt O00767).
T1 sequence (O00767 whole entry): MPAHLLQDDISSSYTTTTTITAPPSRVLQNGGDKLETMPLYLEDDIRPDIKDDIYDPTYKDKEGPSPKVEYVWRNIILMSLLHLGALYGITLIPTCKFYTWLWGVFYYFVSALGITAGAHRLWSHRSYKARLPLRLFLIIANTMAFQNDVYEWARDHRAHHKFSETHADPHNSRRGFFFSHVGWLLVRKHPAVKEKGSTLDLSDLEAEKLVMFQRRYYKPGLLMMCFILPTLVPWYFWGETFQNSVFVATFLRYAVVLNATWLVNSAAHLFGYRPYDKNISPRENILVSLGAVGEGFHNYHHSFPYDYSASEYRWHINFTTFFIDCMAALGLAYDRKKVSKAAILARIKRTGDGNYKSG
Description: Inhibition of SCD1 in human HepG2 cells assessed as ratio of cellular protein product over substrate after 72 hrs

Data set [2] has as its target T2, dCTP pyrophosphatase 1 (Homo sapiens, UniProt Q9H773).
T2 sequence (Q9H773 whole entry): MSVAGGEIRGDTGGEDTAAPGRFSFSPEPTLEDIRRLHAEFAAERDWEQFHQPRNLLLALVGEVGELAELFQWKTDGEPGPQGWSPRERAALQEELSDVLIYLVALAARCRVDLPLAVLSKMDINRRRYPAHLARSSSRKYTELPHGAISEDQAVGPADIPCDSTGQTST
Description: Inhibition of human full length N-terminal His-tagged dCTPase expressed in Escherichia coli BL21(DE3) using dCTP as substrate by HTS-based malachite green assay

A short description of data set [3]: Drug uptake in human MCF7 cells up to 20 uM. Type of data set: ADME, cell-based.
Data set [4] is described as follows: Drug uptake in human HL60 cells at 10 uM. Type of data set: ADME, cell-based. Conditions: hl-60, 10 µM.
For data set [5], the system named is hTERT-BJ. As to the kind of experiment: Cytotoxicity against human hTERT-BJ cells assessed as reduction in cell viability after 72 hrs by Resazurin assay. Type of data set: cell-based.
For data set [6], the system named is HL-60. As to the kind of experiment: Synergistic cytotoxicity against human HL60 cells assessed as reduction in cell viability after 72 hrs in presence of 5-AzaC by Resazurin assay. The format is functional. On the technique in general: The colour change of resazurin is a common sign of viable cells or microbes.

The structures appear in SMILES notation. Bounds are passed on as bounds.

A word on the IC50: it is the midpoint of a concentration-inhibition curve. Lower therefore signals inhibition by little substance. In the case of `Cc1nnc(-c2ccc(N3CCC(Oc4cc(F)ccc4Cl)CC3)nn2)o1`, it took 670 nM to reach half-maximal inhibition in data set [1] (IC50).

For `O=C(Nc1ccccc1)c1ccc(N2CCN(C(=O)c3ccccc3C(F)(F)F)CC2)nn1`, in data set [2], the half-maximal inhibitory concentration (IC50) was more than 10000 nM.

As to `O=C(NCc1ccccc1)c1ccc(N2CCN(C(=O)c3ccccc3C(F)(F)F)CC2)nn1`, inhibition in data set [2] was half-maximal at 240 nM (IC50).

Compound `C#CCNC(=O)c1ccc(N2CCN(S(=O)(=O)c3cccc(Cl)c3C)CC2)nn1` yielded an IC50 in data set [2] of 34 nM.

Take `Cc1ccccc1S(=O)(=O)N1CCN(c2ccc(C(=O)NCc3ccc(F)cc3)nn2)CC1`: the Drug uptake in data set [3] and in data set [4] was more than 50% in each case. In addition, it took 65 nM to reach half-maximal inhibition in data set [2] (IC50).

`Cc1ccccc1S(=O)(=O)N1CC2CC1CN2c1ccc(C(=O)NCc2ccccc2)nn1` (stereo not given) came in with an IC50 in data set [2] of 1700 nM.

Turning to `Cc1ccccc1S(=O)(=O)N1CCN(c2ccc(S(=O)(=O)CCc3ccccc3)nn2)CC1`, the IC50 in data set [2] was more than 10000 nM.

With `Cc1ccccc1S(=O)(=O)N1CCN(c2ccc(C(=O)NCc3ccccc3)nn2)CC1`, the Activity result in data set [5] is “Non-Toxic”. Further, the IC50 in data set [2] turned out to be 170 nM; in data set [1], 19700 nM. The CI in data set [6] is on record as less than 1.

In turn, `O=C(NCc1ccccc1)c1ccc(N2CCN(S(=O)(=O)c3ccccc3F)CC2)nn1` had an IC50 in data set [2] of 350 nM.

For `Cc1ccccc1[S+]([O-])C1CCN(c2ccc(C(=O)NCc3ccccc3)nn2)CC1` (stereo not given), half-maximal inhibition in data set [2] (IC50) required 1100 nM.

`Cc1c(Cl)cccc1S(=O)(=O)N1CCN(c2ccc(C(=O)NCc3cccs3)nn2)CC1` had an IC50 in data set [2] of 19 nM. For the same compound, the CI in data set [6] is listed as less than 1.

In data set [2], `Cc1ccccc1S(=O)(=O)N1CCCN(c2ccc(C(=O)NCc3ccccc3)nn2)CC1` had an IC50 of 3200 nM.

As to `Cc1ncccc1S(=O)(=O)N1CCN(c2ccc(C(=O)NCc3ccc(F)cc3)nn2)CC1`, the Drug uptake in data set [3] and in data set [4] was more than 50% in each case. The Activity result in data set [5] was “Non-Toxic”. For the same compound, half-maximal inhibition in data set [2] (IC50) required 36 nM.

`C=C(CCc1ccc(F)cc1)c1ccc(N2CCN(S(=O)(=O)c3ccccc3C)CC2)nn1` had an IC50 in data set [2] of more than 10000 nM.

In data set [2], `O=C(NCc1ccccc1)c1ccc(N2CCN(S(=O)(=O)c3ccccc3N3CCC(O)CC3)CC2)nn1` returned an IC50 of 260 nM.

Compound `O=C(NCc1ccc(F)cc1)c1ccc(N2CCN(S(=O)(=O)c3cccnc3Cl)CC2)nn1` had a half-inhibitory concentration (IC50) in data set [2] of 25 nM.

Take `Cc1ccccc1S(=O)(=O)C1CCN(c2ccc(C(=O)NCc3ccccc3)nn2)CC1`: half-maximal inhibition in data set [2] (IC50) was put at 530 nM.

`Cc1ccccc1S(=O)(=O)N1CCN(c2ccc(C3(CCc4ccc(F)cc4)COC3)nn2)CC1`: the IC50 in data set [2] was more than 10000 nM.

As for `O=C(NCc1ccccc1)c1ccc(N2CCN(S(=O)(=O)c3ccccc3C(F)(F)F)CC2)nn1`, half-maximal inhibition in data set [2] (IC50) required 250 nM.

`CN(C)c1ccccc1S(=O)(=O)N1CCN(c2ccc(C(=O)NCc3ccccc3)nn2)CC1` had an IC50 in data set [2] of 502 nM.

For `C#CCOC(=O)c1ccc(N2CCN(S(=O)(=O)c3ccccc3N3CCC(O)CC3)CC2)nn1`, the Drug uptake in data set [3] and in data set [4] was more than 50% in each case. The Activity entry in data set [5] is given as “Non-Toxic”. For the same compound, in data set [2], the IC50 came to 41 nM.

In data set [2], `Cc1ccccc1S(=O)(=O)N1CCN(c2ccc(C(=O)CCc3ccc(F)cc3)nn2)CC1` had a half-inhibitory concentration (IC50) of 258 nM.

`Cc1ccccc1S(=O)(=O)N1CCN(c2ccc(C(=O)NCc3cccs3)nn2)CC1` registered an IC50 in data set [2] of 51 nM. Besides, in data set [6], the CI was less than 1.

In the case of `Cc1ccccc1S(=O)(=O)N1CCN(c2ccc(CNCc3ccccc3)nn2)CC1`, the IC50 in data set [2] is more than 10000 nM.

In turn, `Cc1ccccc1S(=O)(=O)N1CCN(c2ccc(C(=O)OCc3ccccc3)nn2)CC1` displayed an IC50 in data set [2] of 38 nM.

On to `Cc1ccccc1S(=O)(=O)N1CCN(c2ccc(C(CO)(CO)CCc3ccc(F)cc3)nn2)CC1`, for which the IC50 in data set [2] is more than 10000 nM.

Turning to `O=C(NCCc1ccccc1)c1ccc(N2CCN(C(=O)c3ccccc3C(F)(F)F)CC2)nn1`, it took 2800 nM to reach half-maximal inhibition in data set [2] (IC50).
